Key:
[1] = target: T1, EeAChE (Electrophorus electricus, UniProt O42275); experiment: biochemical; assay type: biochemical; conditions: for EeAChE inhibitory activity in words: Ellman's assay
T1 construct: purchased Sigma–Aldrich
Procedure: (§1) Ellman’s method was used to determine the activity of the synthesized compounds against AChE from electric eel (Electrophorus electricus, EeAChE) and BuChE from equine serum (EqBuChE).
(§2) All assays were performed in 0.1 M phosphate buffer pH 8.0. The tested compounds or water in a blank sample (25 µL) were incubated with the enzyme (20 µL) for 5 min at 25 °C in buffer (765 µL) prior to starting the reaction. Then, DTNB (20 µL) and ATC (20 µL) were added. […] Each condition was measured in triplicate. The percentages of enzyme inhibition were calculated from the equation 100%—Ai/A0 × 100%, where Ai is the absorbance of a sample with an inhibitor and A0 is the absorbance of a blank sample (100% activity of the enzyme). The IC50 values were calculated using GraphPad Prism 5. Data is expressed as mean ± SEM.

[2] = target: T2, EqBuChE (Equus caballus, UniProt P81908); experiment: biochemical
T2 construct: BuChE from equine serum (EqBuChE, Sigma–Aldrich); purchased Sigma–Aldrich; host or cells: equine serum
T2 sequence (P81908 whole entry): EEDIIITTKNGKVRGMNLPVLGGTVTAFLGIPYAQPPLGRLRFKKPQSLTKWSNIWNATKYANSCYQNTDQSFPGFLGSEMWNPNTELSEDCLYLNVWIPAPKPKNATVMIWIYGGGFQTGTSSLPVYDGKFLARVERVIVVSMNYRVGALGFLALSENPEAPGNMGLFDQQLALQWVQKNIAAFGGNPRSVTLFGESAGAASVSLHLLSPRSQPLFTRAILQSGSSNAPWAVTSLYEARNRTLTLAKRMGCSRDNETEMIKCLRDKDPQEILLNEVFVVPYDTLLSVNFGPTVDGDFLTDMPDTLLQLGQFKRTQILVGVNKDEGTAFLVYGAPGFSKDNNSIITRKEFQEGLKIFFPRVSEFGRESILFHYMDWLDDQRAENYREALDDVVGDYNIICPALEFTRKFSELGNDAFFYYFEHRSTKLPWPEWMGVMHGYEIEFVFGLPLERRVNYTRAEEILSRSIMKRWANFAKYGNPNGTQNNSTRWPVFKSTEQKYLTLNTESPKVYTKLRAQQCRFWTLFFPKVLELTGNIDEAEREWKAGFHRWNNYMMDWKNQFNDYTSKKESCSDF
Procedure: as §1, §2

[3] = PAMPA-BBB; for Log Pe: 2 h at 37 °C, means of two replicates; for Prediction of BBB penetration: class from log Pe
Procedure: For anti-Alzheimer drug candidates, the ability to cross the blood–brain barrier and to enter the central nervous system (CNS) is crucial to achieve their pharmacological target and activity.
The BBB-PAMPA Explorer Test System was purchased from pION Inc. The in vitro permeability through BBB-1 lipid membrane was determined for 7 commercial drugs and the tested compounds. The compounds were dissolved in DMSO (10 mM stock solution) and diluted with Prisma HT buffer (5 µL/1 mL). Then, the […] 96-well microplate was filled with solution of the tested compounds in buffer (200 µL/well). The filter membrane in acceptor 96-well microplate was impregnated with BBB-1 lipid solution (5 µL/well) and the acceptor plate was filled with Brain Sink Buffer (200 µL/well). The acceptor plate was carefully placed on the donor plate to form a sandwich that was left undisturbed for 2 h at 37 °C. After incubation, the donor plate was carefully removed. The concentration of compounds in the acceptor, the donor, and the reference wells were measured using EnSpire Multimode Microplate Reader (PerkinElmer).

[4] = target: T3, Aβ1–42 (Homo sapiens, UniProt P05067); experiment: Thioflavin-T fluorometric assay of self-induced Aβ1–42 aggregation; assay type: biochemical; conditions: 10 µM compound, 1.5 µM Aβ1–42; mean ± SD; <10 = defined as not active; read-out: Aβ1–42 Aggreg. % of inhibition
T3 construct: Recombinant human HFIP-pretreated Aβ1–42 peptide; purchased Merck Millipore Lot number 2387442
T3 sequence (P05067 672-713): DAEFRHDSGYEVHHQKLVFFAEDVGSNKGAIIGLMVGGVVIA
From the text: Mechanisms of Aβ aggregation remain unclear. Besides the self-induced assembly of Aβ, several other factors affect its aggregation, including metal ions, AChE [45], and oxidative stress. Therefore, we evaluated our compounds using the most versatile and commonly used Aβ1–42 aggregation Thioflavin T assay. Seven structurally diverse compounds were selected (one from each subseries) to test their ability to inhibit self-induced Aβ1–42 aggregation.
Thioflavin-T (ThT) fluorometric assay was performed to investigate the effect of the test compounds on the self-aggregation of Aβ1–42. […] Each sample was prepared in quadruplicate, and the DMSO was always at 3%. To quantify amyloid fibril formation, the ThT fluorescence was measured through the bottom of the plate every 180 s at an excitation wavelength of 440 nm and emission wavelength of 490 nm, with the medium continuously shaking between measurements using a 96-well microplate reader (Synergy™ H4, BioTek Instruments, Inc., Winooski, VT, USA). […] The fluorescence intensities at the plateau in the absence and presence of the test compounds were averaged, and the average fluorescence of the corresponding wells at t = 0 h was subtracted.

T1 sequence (O42275 24-633): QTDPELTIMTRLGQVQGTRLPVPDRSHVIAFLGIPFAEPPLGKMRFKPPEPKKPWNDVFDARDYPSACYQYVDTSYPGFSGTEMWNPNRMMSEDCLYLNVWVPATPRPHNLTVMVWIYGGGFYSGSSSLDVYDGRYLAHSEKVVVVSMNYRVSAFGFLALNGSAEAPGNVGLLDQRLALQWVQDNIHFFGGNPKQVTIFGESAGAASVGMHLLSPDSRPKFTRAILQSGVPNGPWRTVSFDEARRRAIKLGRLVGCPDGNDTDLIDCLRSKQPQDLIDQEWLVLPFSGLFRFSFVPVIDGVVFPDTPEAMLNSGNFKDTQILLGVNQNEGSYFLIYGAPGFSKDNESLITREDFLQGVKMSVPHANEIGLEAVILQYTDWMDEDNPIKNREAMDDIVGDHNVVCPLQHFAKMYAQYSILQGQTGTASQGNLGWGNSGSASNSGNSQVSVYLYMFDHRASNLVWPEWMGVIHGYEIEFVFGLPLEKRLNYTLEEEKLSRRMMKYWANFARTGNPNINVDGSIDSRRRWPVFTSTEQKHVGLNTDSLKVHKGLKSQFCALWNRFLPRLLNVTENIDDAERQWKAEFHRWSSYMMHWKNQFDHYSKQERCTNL

| Compound | IC50 [1] | IC50 [2] | Log Pe [3] | Prediction of BBB penetration [3] | inhibition at 10 µM [4] | EeAChE inhibitory activity in words [1] |
| --- | --- | --- | --- | --- | --- | --- |
| O=C1c2ccccc2C(=O)N1CCCCCN1CCCC1 [Compound 1, 2-(5-(Pyrrolidin-1-yl)pentyl)isoindoline-1,3-dione] | 0.781 ± 0.009 µM | > 50 µM | – | – | – | – |
| O=C1c2ccccc2C(=O)N1CCCCCCN1CCCC1 [Compound 2, 2-(6-(Pyrrolidin-1-yl)hexyl)isoindoline-1,3-dione] | 0.643 ± 0.006 µM | > 50 µM | – | – | – | – |
| O=C1c2ccccc2C(=O)N1CCCCCN1CCOCC1 [Compound 5, 2-(5-Morpholinopentyl)isoindoline-1,3-dione] | 18.1 ± 0.402 µM | > 50 µM | – | – | – | – |
| O=C1c2ccccc2C(=O)N1CCCCCCN1CCOCC1 [Compound 6, 2-(6-Morpholinohexyl)isoindoline-1,3-dione] | 17.2 ± 0.474 µM | > 50 µM | – | – | – | – |
| O=C1c2ccccc2C(=O)N1CCCCCCCN1CCOCC1 [Compound 7, 2-(7-Morpholinoheptyl)isoindoline-1,3-dione] | 4.11 ± 0.066 µM | > 50 µM | –4.2 | CNS+ (CNS+, log Pe > −4.5, high permeability (i.e., can enter the CNS)) | 17.1 ± 6.13% | – |
| O=C1c2ccccc2C(=O)N1CCCCCCCCN1CCOCC1 [Compound 8, 2-(8-Morpholinooctyl)isoindoline-1,3-dione] | 4.5 ± 0.064 µM | > 50 µM | – | – | – | – |
| O=C1c2ccccc2C(=O)N1CCCCN1CCc2ccccc2C1 [Compound 9, 2-(4-(3,4-dihydroisoquinolin-2(1H)-yl)butyl)isoindoline-1,3-dione] | 5.6 ± 0.087 µM | 12.82 ± 0.107 µM | – | – | – | – |
| O=C1c2ccccc2C(=O)N1CCCCCN1CCc2ccccc2C1 [Compound 10, 2-(5-(3,4-dihydroisoquinolin-2(1H)-yl)pentyl)isoindoline-1,3-dione] | 1.266 ± 0.011 µM | 5.31 ± 0.16 µM | – | – | – | – |
| O=C1c2ccccc2C(=O)N1CCCCCCCN1CCc2ccccc2C1 [Compound 12, 2-(7-(3,4-Dihydroisoquinolin-2(1H)-yl)heptyl)isoindoline-1,3-dione] | 0.688 ± 0.017 µM | 1.17 ± 0.027 µM | – | – | – | – |
| O=C1c2ccccc2C(=O)N1CCCCCCCCN1CCc2ccccc2C1 [Compound 13, 2-(8-(3,4-Dihydroisoquinolin-2(1H)-yl)octyl)isoindoline-1,3-dione] | 0.76 ± 0.017 µM | 0.618 ± 0.009 µM | –4.2 | CNS+ (CNS+, log Pe > −4.5, high permeability (i.e., can enter the CNS)) | 35.8 ± 5.39% | – |
| O=C1c2ccccc2C(=O)N1CCCCCCCCCCN1CCc2ccccc2C1 [Compound 14, 2-(10-(3,4-Dihydroisoquinolin-2(1H)-yl)decyl)isoindoline-1,3-dione] | > 50 µM | 1.73 ± 0.038 µM | – | – | – | not active |
| O=C1c2ccccc2C(=O)N1CCCCCCCCCCCCN1CCc2ccccc2C1 [Compound 15, 2-(12-(3,4-Dihydroisoquinolin-2(1H)-yl)dodecyl)isoindoline-1,3-dione] | > 50 µM | 3.66 ± 0.085 µM | – | – | – | not active |
| CCN(CC)CCCCCN1CCc2ccccc2C1 [Compound 20, 5-(3,4-dihydroisoquinolin-2(1H)-yl)-N,N-diethylpentan-1-amine] | > 50 µM | > 50 µM | – | – | – | – |
| CCN(CC)CCCCCCN1CCc2ccccc2C1 [Compound 21, 6-(3,4-Dihydroisoquinolin-2(1H)-yl)-N,N-diethylhexan-1-amine] | > 50 µM | > 50 µM | – | – | – | – |
| CCN(CC)CCCCCCCN1CCc2ccccc2C1 [Compound 22, 7-(3,4-Dihydroisoquinolin-2(1H)-yl)-N,N-diethylheptan-1-amine] | 17.3 ± 0.401 µM | 37.1 ± 0.878 µM | – | – | – | – |
| CCN(CC)CCCCCCCCN1CCc2ccccc2C1 [Compound 23, 8-(3,4-Dihydroisoquinolin-2(1H)-yl)-N,N-diethyloctan-1-amine] | 4.72 ± 0.149 µM | 14 ± 0.343 µM | – | – | < 10% | – |
| CCN(CC)CCCn1ccc2ccccc21 [Compound 30, N,N-diethyl-3-(1H-indol-1-yl)propan-1-amine] | > 50 µM | > 50 µM | – | – | – | – |
| CCN(CC)CCCCn1ccc2ccccc21 [Compound 31, N,N-diethyl-4-(1H-indol-1-yl)butan-1-amine] | > 50 µM | 26 ± 0.813 µM | – | – | – | – |
| CCN(CC)CCCCCn1ccc2ccccc21 [Compound 32, N,N-Diethyl-5-(1H-indol-1-yl)pentan-1-amine] | > 50 µM | 22.6 ± 0.602 µM | – | – | – | – |
| CCN(CC)CCCCCCn1ccc2ccccc21 [Compound 33, N,N-Diethyl-6-(1H-indol-1-yl)hexan-1-amine] | > 50 µM | 28.7 ± 0.723 µM | – | – | – | – |
| CCN(CC)CCCCCCCn1ccc2ccccc21 [Compound 34, N,N-Diethyl-7-(1H-indol-1-yl)heptan-1-amine] | 22.2 ± 0.424 µM | 1.47 ± 0.593 µM | – | – | – | – |
| CCN(CC)CCCCCCCCn1ccc2ccccc21 [Compound 35, N,N-Diethyl-8-(1H-indol-1-yl)octan-1-amine] | 9.56 ± 0.289 µM | 3.47 ± 0.1 µM | – | – | 16.6 ± 2.74% | – |
| O=C1c2ccccc2S(=O)(=O)N1CCCCCNCc1ccccc1F [Compound 39, 2-(5-(2-fluorobenzylamino)pentyl)benzo[d]isothiazol-3(2H)-one 1,1-dioxide] | 0.15 ± 0.003 µM | > 50 µM | –4.0 | CNS+ (CNS+, log Pe > −4.5, high permeability (i.e., can enter the CNS)) | 12.3 ± 2.63% | – |
| O=C1c2ccccc2S(=O)(=O)N1CCCCCCNCc1ccccc1F [Compound 40, 2-(6-(2-fluorobenzylamino)hexyl)benzo[d]isothiazol-3(2H)-one 1,1-dioxide] | 1.14 ± 0.015 µM | > 50 µM | – | – | – | – |
| O=C1c2ccccc2S(=O)(=O)N1CCCCCCCNCc1ccccc1F [Compound 41, 2-(7-(2-fluorobenzylamino)heptyl)benzo[d]isothiazol-3(2H)-one 1,1-dioxide] | 0.735 ± 0.009 µM | 4.97 ± 0.127 µM | – | – | – | – |
| O=C1c2ccccc2S(=O)(=O)N1CCCCCCNCc1cccc(Cl)c1 [Compound 43, 2-(6-(3-chlorobenzylamino)hexyl)benzo[d]isothiazol-3(2H)-one 1,1-dioxide] | 0.596 ± 0.006 µM | 6.54 ± 0.163 µM | – | – | – | – |
| O=C1c2ccccc2S(=O)(=O)N1CCCCCCCNCc1cccc(Cl)c1 [Compound 44, 2-(7-(3-chlorobenzylamino)heptyl)benzo[d]isothiazol-3(2H)-one 1,1-dioxide] | 0.923 ± 0.012 µM | 2.46 ± 0.032 µM | – | – | – | – |
| CC(=O)[C@H]1CC[C@H]2[C@@H]3CCC4=CC(=O)CC[C@]4(C)[C@H]3CC[C@]12C [Progesterone, reference compound] | – | – | – | CNS+ (CNS+, log Pe > −4.5, high permeability (i.e., can enter the CNS)) | – | – |
| CC(C)NCC(O)COc1cccc2ccccc12 (stereo not shown) [Propranolol, reference compound] | – | – | – | CNS+ (CNS+, log Pe > −4.5, high permeability (i.e., can enter the CNS)) | – | – |
| Cn1c(=O)c2[nH]cnc2n(C)c1=O [Theophylline, reference compound] | – | – | –6.3 | – | – | – |
